Experimental data taken from US20130040331A1, “LABEL-FREE METHODS RELATED TO hERG POTASSIUM ION [sequence]” (CORNING INCORPORATED, priority 2009, published 2013).

How the values were obtained:
[1] = system: mallotoxin DMR signal in HT29 cells; experiment: DMR modulation index against the mallotoxin DMR signal in HT29 cells; type: cell-based, human
Excerpt: (§1) A “molecule modulation index” or like terms is an index to display the ability of the molecule to modulate the biosensor output signals of the panels of markers acting on the panel of cells. The modulation index is generated by normalizing a specific biosensor output signal parameter of a response of a cell upon stimulation with a marker in the presence of a molecule against that in the absence of any molecule.
(§2) Epic® wavelength interrogation system (Corning Inc., Corning, N.Y.) was used for whole cell sensing. This system consists of a temperature-control unit, an optical detection unit, and an on-board liquid handling unit with robotics. The detection unit is centered on integrated fiber optics, and enables kinetic measures of cellular responses with a time interval of ˜15 sec.
(§3) Cells were plated in 384-well Epic® cell culture treated plate (Corning Cat#5040) 16-20 hours before assay (15000 cells/well for HEK293 and HEK-hERG cells, 30000 cells/well for HT29 cells). For both HEK-hERG and its parental HEK293 cells, each well was coated with 10 μl 5 μg/ml fibronectin. One hour before assay, cells were washed twice on a BioTek ELx405 Select washer with Hank's Balanced Salt Solution (HBSS) containing 20 mM Hepes. Cells were incubated in 40 μl/well HBSS at 28° C. inside the Epic system for one hour. For each assay, a 2-min baseline was initiated, followed by addition of 10 μl compound solutions (5×) and the cell responses were recorded continuously for one hour.
(§4) All studies were carried out at a controlled temperature (28° C.). At least two independent sets of experiments, each with at least three replicates, were performed. […] All dose-dependent responses were analyzed using non-linear regression method with the GraphPad Prism 5.
(§5) The DMR modulation index was generated by normalizing the mallotoxin DMR signal in either cell line in the presence of compound […] to its corresponding DMR signal in the absence of the compound, and the percentage of modulation was based on the amplitude of the mallotoxin DMR signal at a specific time (−18 min after stimulation for HEK-hERG cells, and ˜50 min after stimulation for HT29 cells, respectively). Mallotoxin is known to display polypharmacology. It is also known to be a protein kinase C (PKC) inhibitor; and PKC is a downstream signaling component of hERG activation. Thus, it would be difficult or almost impossible to assign the mode(s) of action of mallotoxin to be a hERG activator when either cell line is individually assayed with the label-free biosensor (i.e., Epic® system). […] However, combining the primary DMR profiles of a compound across the three cell lines tested with the modulation index of the compound against the mallotoxin responses in both HT29 and […] cells can correctly identify whether the compound is a hERG activator or not. The results shown in FIG. 1 indicate that indeed mallotoxin is a hERG activator; and the activation of hERG can result in detectable biosensor responses in the two hERG expressing cell lines.

[2] = system: mallotoxin DMR signal in HEK-hERG cells; type: cell-based, human
Excerpt: as §1, §2, §3, §4, §5

[3] = system: hERG channel or hERG-associated signaling complex; experiment: Classification of hERG modulators by label-free biosensor profiles across three cell lines plus mallotoxin modulation index; type: cell-based, human
Excerpt: The traditional hERG ion channel assay involves assaying ion flux such as Rb^+ flux using ion absorption assays, or assaying hERG currents directly using patch clamping methods. Traditionally, a molecule which causes increase in Rb^+ flux and/or hERG currents is referred to a hERG activator, while a molecule which inhibits Rb^+ flux and/or hERG currents is referred to a hERG inhibitor. […] These hERG activators may or may not result in detectable biosensor signals in cells, using label-free biosensor cellular assays. A hERG activator that results in a detectable biosensor signal in a hERG expressing cell via hERG or hERG signaling complex is also referred to a label-free biosensor hERG activator.
Disclosed are methods of classifying a molecule for modulating hERG activity, comprising the steps: a. incubating a molecule individually with at least three different types of cells consisting of a native cell endogenously expressing hERG, an engineered cell stably expressing hERG and its parental cell without expressing hERG, and b. monitoring the molecule induced cellular response on each cell type with a label-free biosensor cellular assay,
Also disclosed are methods, further comprising as steps c) incubating a label-free biosensor hERG activator with each cell type in the presence of the molecule, d. monitoring the label-free biosensor hERG activator induced cellular response on each cell type in the presence of the molecule, e. generating a biosensor modulation index of the molecule against the label-free biosensor hERG activator induced biosensor signals in the two hERG expressing cell types.
as §5

HEK-hERG cells = experiment: Label-free RWG biosensor (Epic) DMR assay, agonism mode, HEK-hERG cells stably expressing hERG; type: cell-based, human
Protocol: as §2, §3, §4
(§6) Three different types of cells: human colon cancerous cell line HT-29, HEK293 and its engineered HEK-hERG cell lines were used. HT-29 is known to endogenously express hERG channels. HEK293 is a native cell line without endogenously expressed hERG channels, while HEK-hERG is an engineered HEK293 cells having stably expressed hERG channels. Mallotoxin, a newly discovered hERG activator, was used to activate hERG channels at or near physiological conditions (i.e., 1×HBSS buffered conditions).

HT29 cells = experiment: Label-free RWG biosensor (Epic) DMR assay, agonism mode, HT29 cells endogenously expressing hERG; type: cell-based, human
Protocol: as §2, §3, §4, §6

hERG channel = hERG channel (Homo sapiens, UniProt Q12809); experiment: Rb+ flux assay using HEK-hERG cells; settings: for effect on hERG ion flux (Rb+ flux, FIG. 6): HEK-hERG cells, overall statement, KCl and concentration not specified
Protocol: Briefly, 50,000 cells per well were plated in 96-well tissue culture treated plates 20 hours before assay. In the next day, cells were incubated with complete cell culture medium containing 5 mM RbCl for 3 hours at 37° C. with 5% CO2. Then compounds (10×) diluted in HBSS were added into the cell culture medium and cells were incubated at 37° C. with 5% CO2 for another hour. Cells were washed twice with Rb^+ free cell culture medium and incubated with 180 μl/well of cell culture medium containing different concentration of KCl for exactly 10 minutes. The supernatant from each well was transferred to a new 96 well plate immediately. Cells were lysed with 180 μl/well 0.5% Triton-100 in HBSS. The Rb^+ concentration of each sample was determined by ICR8000 (Aurora Biomed Inc.).

[4] = 5 mM KCl, compound at 10 or 50 μM
[5] = pretreatment with 16 micromolar compound, then 16 micromolar mallotoxin

Sequence of hERG channel (Q12809 whole entry): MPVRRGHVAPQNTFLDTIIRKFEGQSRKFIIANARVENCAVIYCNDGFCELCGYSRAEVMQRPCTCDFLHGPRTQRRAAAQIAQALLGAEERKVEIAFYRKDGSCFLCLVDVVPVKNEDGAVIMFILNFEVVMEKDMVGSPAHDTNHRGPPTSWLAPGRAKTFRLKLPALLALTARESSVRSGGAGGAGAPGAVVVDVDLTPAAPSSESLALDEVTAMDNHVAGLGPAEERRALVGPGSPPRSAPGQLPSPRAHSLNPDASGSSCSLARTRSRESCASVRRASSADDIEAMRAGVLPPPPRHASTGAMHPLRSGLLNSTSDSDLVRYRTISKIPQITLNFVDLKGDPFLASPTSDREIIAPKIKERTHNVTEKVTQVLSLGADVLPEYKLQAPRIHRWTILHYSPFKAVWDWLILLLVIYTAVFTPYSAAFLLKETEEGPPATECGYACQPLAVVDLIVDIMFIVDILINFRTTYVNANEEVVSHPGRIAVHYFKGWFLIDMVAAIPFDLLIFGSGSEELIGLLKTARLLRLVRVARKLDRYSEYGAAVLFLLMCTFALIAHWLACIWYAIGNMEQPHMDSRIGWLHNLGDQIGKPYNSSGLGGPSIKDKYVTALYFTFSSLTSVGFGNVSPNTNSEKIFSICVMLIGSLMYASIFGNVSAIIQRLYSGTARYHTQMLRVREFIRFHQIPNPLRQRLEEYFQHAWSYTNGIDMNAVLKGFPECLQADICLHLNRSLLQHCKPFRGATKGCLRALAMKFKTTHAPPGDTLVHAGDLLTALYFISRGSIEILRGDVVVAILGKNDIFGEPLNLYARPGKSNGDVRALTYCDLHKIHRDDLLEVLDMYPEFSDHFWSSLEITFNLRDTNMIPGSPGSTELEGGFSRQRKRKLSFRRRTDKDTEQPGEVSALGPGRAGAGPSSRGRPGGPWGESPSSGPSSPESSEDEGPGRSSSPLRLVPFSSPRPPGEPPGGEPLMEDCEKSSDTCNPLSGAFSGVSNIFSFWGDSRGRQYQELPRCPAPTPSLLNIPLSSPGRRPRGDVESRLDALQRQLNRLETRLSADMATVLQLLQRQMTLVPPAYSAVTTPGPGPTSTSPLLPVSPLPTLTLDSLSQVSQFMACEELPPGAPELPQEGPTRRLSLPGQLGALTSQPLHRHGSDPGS

## O=C(O)c1ccccc1Nc1cccc(C(F)(F)F)c1 [flufenamic acid]
[1]; compound 10 micromolar, mallotoxin 16 micromolar, amplitude ~50 min after stimulation
  modulation index against mallotoxin in HT29 cells: −90%
[1]; compound at 10 micromolar, mallotoxin 16 micromolar
  modulation of the mallotoxin DMR signal in HT29 cells: selectively attenuated
[2]; 10% modulation = 1 score unit
  score of modulation index in coordination, HEK-hERG coordinate: 1
[2]; compound 10 micromolar, mallotoxin 16 micromolar, amplitude 18 min after stimulation
  modulation index against mallotoxin in HEK-hERG cells: ~+12%
[3]
  hERG pathway activity class by label-free biosensor: hERG pathway activator
HEK-hERG cells; compound at 10 μM
  DMR signal in HEK-hERG cells: robust DMR signals
HT29 cells; compound at 10 μM
  DMR signal in HT29 cells: robust DMR signals
hERG channel; [4]
  Rb+ signal in HEK-hERG cells: small and dose-dependent increase
hERG channel
  effect on hERG ion flux (Rb+ flux, FIG. 6): weak hERG ion flux activator

## CC(=O)c1c(O)c(C)c(O)c(Cc2c(O)c3c(c(C(=O)/C=C/c4ccccc4)c2O)OC(C)(C)C=C3)c1O [mallotoxin]
[1]; [5]
  modulation of the mallotoxin DMR signal in HT29 cells: completely caused the desensitization
[2]; [5]
  modulation of the mallotoxin DMR signal in HEK-hERG cells: completely caused the desensitization
[3]
  hERG pathway activity class by label-free biosensor: label-free hERG pathway activator
HEK-hERG cells; amplitudes at 18 min after stimulation, read-out: apparent EC50 of dose-dependent DMR signal in HEK-hERG cells
  EC50: ~25 µM
HEK-hERG cells; compound at 16 micromolar
  DMR signal in HEK-hERG cells: robust DMR signal
HT29 cells; compound at 16 micromolar
  DMR signal in HT29 cells: robust DMR signal
hERG channel; [4]
  Rb+ signal in HEK-hERG cells: significant increase
hERG channel; 40 mM KCl, compound at 10 μM
  Rb+ signal in HEK-hERG cells: obvious increase
hERG channel
  effect on hERG ion flux (Rb+ flux, FIG. 6): strong hERG ion flux activator
